The nature of the data set: solvent given as SMILES.

The structures appear in SMILES notation.

`CCCN1c2ccccc2Sc2cc(/C=C\c3cc(=O)oc4cc(C)ccc34)ccc21`: the emission maximum (in ClC(Cl)Cl) is 631 nm.

Turning to `CC(C)[Si](C#Cc1c2cc3ccccc3cc2c(C#Cc2ccc(Br)cc2)c2cc3ccccc3cc12)(C(C)C)C(C)C`, under “in ClCCl”, the emission maximum was determined as 663 nm.

In turn, `Cc1nc2cccc(-c3nc4ccccc4[nH]3)c2c(=O)[nH]1` had an emission maximum (in CN(C)C=O) of 441 nm.

Compound `c1ccc2c(c1)Sc1ccccc1N2c1ccc2c(c1)C1(CC1)c1cc(N3c4ccccc4Sc4ccccc43)ccc1-2` gave an emission maximum (in Cc1ccccc1) of 494 nm.

`Cc1c(C)c(B(c2c(C)c(C)c(C#N)c(C)c2C)c2c(C)c(C)c(N3c4ccccc4Oc4ccccc43)c(C)c2C)c(C)c(C)c1C#N` had an emission maximum (in c1ccc([Si](c2ccccc2)(c2ccc(-n3c4ccccc4c4ccccc43)cc2)c2ccc(-n3c4ccccc4c4ccccc43)cc2)cc1) of 533 nm.

`Cc1ccc(C)c2nc3c(=O)[nH]c(=O)[nH]c3nc12` registered an emission maximum (in CC#N) of 491 nm.

For `COc1ccc(C2=C(c3ccc(-c4ccccc4)cc3)C(c3ccccc3)=[N+]3C2=Nc2c(-c4ccc(OC)cc4)c(-c4ccc(-c5ccccc5)cc4)c(-c4ccccc4)n2[B-]3(F)F)cc1`, the emission maximum (in Cc1ccccc1) stood at 716 nm.

For `N#Cc1c(-n2c3ccc(Br)cc3c3cc(Br)ccc32)c(C#N)c(-n2c3ccc(Br)cc3c3cc(Br)ccc32)c(-n2c3ccc(Br)cc3c3cc(Br)ccc32)c1-n1c2ccc(Br)cc2c2cc(Br)ccc21`, the emission maximum (in Cc1ccccc1) is 521 nm.

For the compound `N#Cc1nc(N(Cc2ccccc2)Cc2ccccc2)c(C#N)nc1N(Cc1ccccc1)Cc1ccccc1`, for the setting “in ClC(Cl)Cl”, the emission maximum is recorded as 588 nm.

`c1ccc(N(c2ccccc2)c2ccc(-c3ccc(-c4nc(-c5ccccn5)n(-c5ccccc5)n4)cc3)cc2)cc1`: the emission maximum (in ClCCl) was found to be 435 nm.

With `CCN(C(C)=O)c1cc2c(cc1C)C(c1ccccc1C(=O)O)=C1CCCC(/C=C/C3=[N+](C)c4ccc5ccccc5c4C3(C)C)=C1O2`, for the setting “in CCO”, the emission maximum turned out to be 715 nm.

For the setting “in ClCCl”, `O=c1c2cccc3cccc(c32)c2nc3cccc4cccc(c43)n12` showed an emission maximum of 682 nm.

Where the note is “in ClC(Cl)Cl”, `CCC1=C(CC)C(C)=[N+]2C1=Cc1c(C)c3cc4c(cc3n1[B-]2(F)F)=[N+]1C(=Cc2c(CC)c(CC)c(C)n2[B-]1(F)F)C=4C` showed an emission maximum of 703 nm.

Turning to `Cc1ccc(C2=C(/C=C/C(=O)OC3CC[C@@]4(C)C(=CC[C@H]5[C@@H]6CC[C@H]([C@H](C)CCCC(C)C)[C@@]6(C)CC[C@@H]54)C3)C(c3ccc(C)cc3)=[N+]3C2=Nc2c(-c4ccc(C)cc4)c(Br)c(-c4ccc(C)cc4)n2[B-]3(F)F)cc1` (stereo partly specified), under “in ClC(Cl)Cl”, the emission maximum amounted to 704 nm.

Regarding `N#Cc1c(N2CCCCC2)cc(-c2ccc3ccccc3c2)c2c1Cc1ccccc1-2`, the emission maximum (in C1CCOC1) is listed as 465 nm.

`O=S(=O)([O-])c1cc(S(=O)(=O)Cl)ccc1C1=c2cc3c4c(c2Oc2c1cc1c5c2CCCN5CCC1)CCC[N+]=4CCC3` registered an emission maximum (in O) of 615 nm.

As to `O=S(=O)(c1cccc(-n2c3ccccc3c3ccccc32)c1)c1cccc(-n2c3ccccc3c3ccccc32)c1`, the emission maximum reads like this: (in C1CCOC1) 426 nm; (in CCCCC(CC)n1c2ccc(-n3c4ccccc4c4ccccc43)cc2c2cc(-n3c4ccccc4c4ccccc43)ccc21) 409.97 nm; (in Cc1ccccc1) 405 nm; (in ClC(Cl)Cl) 422 nm; (in c1cc(-n2c3ccccc3c3ccccc32)cc(-n2c3ccccc3c3ccccc32)c1) 419.94 nm.

With `Nc1cccc2c1-c1ccccc1C2=O`, the emission maximum is, setting by setting: (in C1CCCCC1) 513 nm; (in CC#N) 604 nm; (in CCO) 667 nm; (in c1ccccc1) 544 nm.

As to `COC(=O)C(NC(=O)OC(C)(C)C)c1ccc2oc(-c3ccc(OC(=O)c4ccccc4)cc3O)nc2c1` (stereo unspecified), the emission maximum is 480 nm (in CC1CCCCC1), 471 nm (in CC#N) and 405 nm (in CO).

Regarding `O=C1C2=C(O[B-](F)(F)[n+]3c2ccc2ccccc23)c2ccc(N3CCOCC3)c3cccc1c23`, the emission maximum stood at 545 nm (in C1CCOC1); 553 nm (in CC#N); 552 nm (in CCO); 558 nm (in CO); 544 nm (in ClCCl).

As to `CCN1c2ccc(/C=N/Nc3ccccn3)cc2Sc2cc(-c3ccccc3)ccc21`, the emission maximum is on record as 487 nm (in C1CCOC1), 503 nm (in CS(C)=O), 485 nm (in Cc1ccccc1) and 497 nm (in ClCCl).

For the compound `O=[N+]([O-])c1ccc(/C=C/c2cn(S(=O)(=O)c3ccccc3)c3ccccc23)cc1`, the emission maximum (in CC#N) came to 593 nm, the emission maximum (in CCCCCCC) came out at 403 nm, the emission maximum (in CO) was 417 nm and the emission maximum (in O) is on record as 540 nm.

The compound `COc1ccc(C#Cc2ccc3nc4ccc(C#Cc5ccc(OC)cc5)cn4c(=O)c3c2)cc1` showed an emission maximum (in ClCCl) of 486 nm.

For the compound `CCCCCC(=O)c1c2c(c(C(=O)CCCCC)c3c1OC1(CCCC1)O3)OC1(CCCC1)O2`, the emission maximum by setting is: (in CC#N) 561 nm; (in CCCCCC) 525 nm; (in CCO) 596 nm; (in CO) 611 nm; (in ClCCl) 561 nm.

Consider `CCC1(CC)c2cc(C=O)ccc2-c2ccc(N(C)C)cc21`, for which the emission maximum runs as follows: (in C1CCCCC1) 416 nm; (in CC#N) 521 nm; (in CCO) 562 nm; (in CCOCC) 436 nm; (in CS(C)=O) 532 nm; (in ClCCl) 491 nm. This compound also registered an emission maximum (in c1ccccc1) of 437 nm.

With `COc1ccc(-n2c3ccccc3c3cc(/C=C/C(=C(C#N)C#N)c4ccccc4)ccc32)cc1`, the emission maximum runs as follows: (in C1CCOC1) 560 nm; (in CC#N) 594 nm; (in CC(C)=O) 582 nm; (in CCOC(C)=O) 550 nm; (in CO) 597 nm; (in CS(C)=O) 601 nm. Moreover, the emission maximum worked out at 526 nm (in Cc1ccccc1) and 554 nm (in ClC(Cl)Cl).

`CCCn1c2cccc3oc4cccc5c4[c+](c32)c2c1cccc2n5CCC` gave an emission maximum (in CC#N) of 590 nm.

For `Fc1ccc2sc3nc(-c4ccccc4)sc3c2c1`, the emission maximum (in CS(C)=O) was found to be 409 nm.

In the case of `N#Cc1nc(N(Cc2ccc(Cl)cc2)Cc2ccc(Cl)cc2)c(C#N)nc1N(Cc1ccc(Cl)cc1)Cc1ccc(Cl)cc1`, the emission maximum (in ClC(Cl)Cl) is 577 nm.

For the compound `c1ccc(-c2c3ccccc3c(-c3ccc4ccccc4c3)c3ccccc23)nc1`, the emission maximum (in ClCCl) was 431 nm.

For the compound `CCN(CC)c1ccc(/C=N/Nc2ccc(C#N)cc2)c(O)c1`, the emission maximum (in CC#N) is listed as 418 nm; the emission maximum (in CCCCCC) was determined as 403 nm; the emission maximum (in CO) worked out at 430 nm; the emission maximum (in CS(C)=O) is reported as 422 nm; the emission maximum (in ClC(Cl)Cl) is 410 nm.

For the compound `CCN(CC)c1ccc2cc(-c3nc4ccccc4n3C)c(=O)oc2c1`, where the note is “in CC#N”, the emission maximum is recorded as 480 nm.

Turning to `c1ccc(-c2nc(-c3ccccc3)nc(-c3ccc(-n4c5ccccc5c5c6c(ccc54)-c4ccccc4C6(c4ccccc4)c4ccccc4)cc3)n2)cc1`, the emission maximum amounted to 504.15 nm (in C1CCOC1); 407.03 nm (in CCCCCC); 446 nm (in Cc1ccccc1); 530.05 nm (in ClCCl); 475 nm (in O=P(c1ccccc1)(c1ccccc1)c1ccccc1Oc1ccccc1P(=O)(c1ccccc1)c1ccccc1).

Regarding `CCCCCCCCCCCCOc1cc2cc(N(C)C)ccc2cc1C=C(C#N)C#N`, the emission maximum (in C1CCOC1) is recorded as 576 nm; the emission maximum (in CC#N) was determined as 613 nm; the emission maximum (in CCCCCC) was found to be 653 nm; the emission maximum (in CCO) is 610 nm; the emission maximum (in CCOC(C)=O) stood at 571 nm; the emission maximum (in CS(C)=O) was determined as 631 nm. The emission maximum was found to be 578 nm (in ClCCl) and 674 nm (in O).

`CCCCN(CCCC)c1ccc2c#cc3cc4c#cc5ccc(N(CCCC)CCCC)cc5c#cc#cc5cc(C(F)(F)F)ccc5c#cc4cc3c#cc3ccc(C(F)(F)F)cc3c#cc#cc2c1`: the emission maximum by setting is: (in ClCCl) 544 nm; (in c1ccccc1) 501 nm.

As for `Cc1cc(C)nc(N)n1`, the emission maximum came out at 337 nm (in CCO), 339 nm (in CO) and 342 nm (in O).

`C(#Cc1ccc2c(c1)c1cc(C#Cc3ccccc3)ccc1n2-c1cc2ccccc2c2ccccc12)c1ccccc1`: for the setting “in ClCCl”, the emission maximum is 392 nm.

For the setting “in CC#N”, `Cc1cc2c(ccc3c(C)[n+](C)c(C)cc32)c(C)[n+]1C` showed an emission maximum of 424 nm.

The compound `COc1cc(-c2cnc(-c3ccncc3)o2)cc(OC)c1OC` yielded an emission maximum (in ClCCl) of 465 nm.

The compound `CCC(C)(C)c1ccc2c(c1)C(CCOC)(CCOC)c1cc(-c3ccc4c(c3)C(CCOC)(CCOC)c3cc(C(C)(C)CC)ccc3-4)ccc1-2` returned an emission maximum (in C1CCCCC1) of 371 nm.

Turning to `CCCCNC(=O)c1nc2c(N(C)C)nc(N(C)C)nc2n1Cc1ccccc1`, the emission maximum is, setting by setting: (in C1COCCO1) 392 nm; (in CC#N) 405 nm; (in CO) 424 nm; (in ClCCl) 402 nm.

`Cc1nnc(-c2cc(-n3c4ccccc4c4ccccc43)c(-n3c4ccccc4c4ccccc43)cc2-c2nnc(C)o2)o1`: the emission maximum is, setting by setting: (in CC#N) 504.62 nm; (in Cc1ccccc1) 453 nm; (in ClCCl) 485.51 nm.

Compound `C[Si]1(C)c2ccccc2-c2ccccc21` yielded an emission maximum (in ClCCl) of 359 nm.

Consider `CCOC(=O)c1c(-c2c(Cl)c3ccccc3oc2=O)nn(-c2ccccc2)c1C(=O)OCC`, for which, under “in ClCCl”, the emission maximum came to 406 nm.

The compound `CC(C)(C)c1ccc(-n2c(-c3ccc(-c4cccc(-c5c(-c6ccccc6)nc6ccccn56)c4)cc3)nc3c4ccccc4c4ccccc4c32)cc1` returned an emission maximum (in ClCCl) of 417 nm.

`CCN(CC)c1ccc2cc(-c3ccc(-c4c5ccccc5c(-c5ccc(-c6cc7ccc(N(CC)CC)cc7oc6=O)cc5)c5ccccc45)cc3)c(=O)oc2c1` had an emission maximum (in ClC(Cl)Cl) of 472 nm.

For the setting “in ClCCl”, `CN(C)c1ccc(C#Cc2cc(C#Cc3ccc(C(F)(F)F)cc3)c3ccc4c(C#Cc5ccc(N(C)C)cc5)cc(C#Cc5ccc(C(F)(F)F)cc5)c5ccc2c3c45)cc1` came in with an emission maximum of 605 nm.

The values above are taken from the Deep4Chem optical property database.
